# According to article PMC9270327 (Communications Biology, 2022):
# Several values for one entry are separate records, joined by “and”; a condition that tells them apart may be missing. Equal values may be shown once. Where a name gives a salt, the structure may show the parent alone. Read-outs that look alike come from different tables or passages of the source.
# Assays:
# [1] = target: cellular TMPRSS2 activity, Caco-2 cells (Homo sapiens, UniProt O15393); details: normalized, 0 nM = 100
# Protocol: In total, 10,000 Caco-2 cells (ATCC) in 100 µL EMEM medium supplemented with 10% FBS, 100 U/mL penicillin, […] streptomycin, and 2 mM glutamine (all Invitrogen, Germany) were seeded per well in a 96-well plate and incubated at 37 °C for 4 days until full confluency of the cells. The cells were washed two times with PBS and EMEM medium without FBS was added. […] The fluorescence intensity was measured as described above. In all, 20,000 HEK293T cells (ATCC) were seeded in 100 µL DMEM supplemented with 10% FBS, 100 U/mL penicillin, […] streptomycin, and 2 mM glutamine. […] After 14 h, transfection mix was removed from the cells and 80 µL fresh medium without FBS and 10 µL inhibitors were added (final concentration 50 µM). […] Fluorescence intensity was measured after 2 h at 37 °C as described above.
# [2] = system: lentiviral pseudoparticles carrying SARS-CoV-2 Wuhan-Hu-1 spike, Caco-2 cells; type: cell-based
# [3] = system: lentiviral pseudoparticles carrying SARS-CoV-2 Beta (B.1.351) spike, Caco-2 cells; type: cell-based; details: for SARS-CoV-2 spike driven entry, Mean (0 nM = 100): Fig. 5c
# [4] = system: lentiviral pseudoparticles carrying SARS-CoV-2 Omicron BA.1 (B.1.1.529) spike, Caco-2 cells; type: cell-based
# [5] = system: SARS-CoV-2 Wuhan-Hu-1, Caco-2 cells; type: cell-based
# [6] = system: SARS-CoV-2 Beta (B.1.351), Caco-2 cells; type: cell-based
# TMPRSS2 = TMPRSS2 (Homo sapiens, UniProt O15393)
# TMPRSS2, sequence (O15393 whole entry): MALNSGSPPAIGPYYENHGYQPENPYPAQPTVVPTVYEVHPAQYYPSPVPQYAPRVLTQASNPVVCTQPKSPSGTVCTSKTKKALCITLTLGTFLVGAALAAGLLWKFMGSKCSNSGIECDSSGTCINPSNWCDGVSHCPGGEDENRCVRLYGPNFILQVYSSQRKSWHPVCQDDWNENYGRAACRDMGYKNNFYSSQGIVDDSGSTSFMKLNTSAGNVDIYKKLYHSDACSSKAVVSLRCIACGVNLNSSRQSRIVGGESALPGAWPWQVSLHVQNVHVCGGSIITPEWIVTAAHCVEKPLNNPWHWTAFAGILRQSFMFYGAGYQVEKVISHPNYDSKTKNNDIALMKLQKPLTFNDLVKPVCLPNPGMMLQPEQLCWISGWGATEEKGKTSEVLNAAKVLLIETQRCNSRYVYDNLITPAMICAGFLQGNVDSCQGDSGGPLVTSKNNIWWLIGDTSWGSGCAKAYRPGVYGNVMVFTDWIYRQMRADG
# Protocol: Negative ctrl: no inhibitor, positive ctrl: inhibitor in assay buffer. d Inhibitory constants Ki as determined from (a–c). Shown are the means ± SD of n = 1 experiment performed in triplicates. No inh. no inhibition.
# The activity of the compounds against the recombinant human enzymes was determined in enzyme inhibition assays. […] The measurements were performed on a Tecan infinite® M1000 and the fluorescence intensity was measured by exciting the AMC fluorophore at 380 nm wavelength and recording emission at 460 nm wavelength. […] Fluorescence intensities and absorption were measured every 2 min for 2 h or as endpoint after 2 h. […] To determine the IC50 values, the concentration-response data were plotted with the program GraphPad prism version 8.4.2 (San Diego, California) and a nonlinear regression fit with the equation [Inhibitor] vs. normalized response was applied. The inhibitory constant Ki was calculated from the IC50 values using the Cheng–Prusoff equation (Ki = IC50/[S]/KM) for competitive reversible inhibitors[66].
# The stability of the inhibitors was measured according to a modified procedure from ref. [67]. […] At indicated timepoints, 100 µL samples were taken and mixed with 200 µL of ethanol to precipitate proteins. […] The supernatant was aspirated and analyzed using analytical HPLC. The residual inhibitory constants Ki after incubation was assessed by mixing serial dilutions of the inhibitor with recombinant TMPRSS2 as described above.
# cellular TMPRSS2 activity, Caco-2 cells, sequence (O15393 whole entry): as above
smiles,measurement,setting,value
"CN(C)C(=O)COC(=O)Cc1ccc(OC(=O)c2ccc(NC(=N)N)cc2)cc1 [CM, camostat mesylate, reference compound]","cellular protease activity on Caco-2 cells, Mean (Fig. 4a)",[1]; 0.1 nM,103.704
same,"cellular protease activity on Caco-2 cells, Mean (Fig. 4a)",[1]; 1 nM,98.7654
same,"cellular protease activity on Caco-2 cells, Mean (Fig. 4a)",[1]; 10 nM,63.4921
same,"cellular protease activity on Caco-2 cells, Mean (Fig. 4a)",[1]; 100 nM,38.9771
same,"cellular protease activity on Caco-2 cells, Mean (Fig. 4a)",[1]; 1000 nM,21.8695
same,"cellular protease activity on Caco-2 cells, Mean (Fig. 4a)",[1]; 10000 nM,6.173
same,"cellular protease activity on Caco-2 cells, Mean (Fig. 4a)",[1]; 100000 nM,1.764
same,"SARS-CoV-2 spike driven entry, Mean (0 nM = 100)",[2],90.0332
same,IC50,"[2]; Caco-2 cells, luciferase 2 days post transduction, read-out: IC50 pseudotyped lentivirus Wuhan-Hu-1",0.748 µM and ~0.748 µM
same,"SARS-CoV-2 spike driven entry, Mean (0 nM = 100)","[2]; Fig. 5a, compound 160 nM, […]",75.4652
same,"SARS-CoV-2 spike driven entry, Mean (0 nM = 100)","[2]; Fig. 5a, compound 800 nM, […]",52.9188
same,"SARS-CoV-2 spike driven entry, Mean (0 nM = 100)","[2]; Fig. 5a, compound 4000 nM, […]",17.6822
same,"SARS-CoV-2 spike driven entry, Mean (0 nM = 100)","[2]; Fig. 5a, compound 20000 nM, […]",3.857
same,"SARS-CoV-2 spike driven entry, Mean (0 nM = 100)","[2]; Fig. 5a, compound 100000 nM, […]",2.478
same,IC50,"[3]; Caco-2 cells, luciferase 2 days post transduction, read-out: IC50 pseudotyped lentivirus Beta",0.156 µM
same,"SARS-CoV-2 spike driven entry, Mean (0 nM = 100)",[3]; compound 3.2 nM,69.473
same,"SARS-CoV-2 spike driven entry, Mean (0 nM = 100)",[3]; compound 16 nM,73.209
same,"SARS-CoV-2 spike driven entry, Mean (0 nM = 100)",[3]; compound 80 nM,64.2815
same,"SARS-CoV-2 spike driven entry, Mean (0 nM = 100)",[3]; compound 400 nM,45.014
same,"SARS-CoV-2 spike driven entry, Mean (0 nM = 100)",[3]; compound 2000 nM,20.732
same,"SARS-CoV-2 spike driven entry, Mean (0 nM = 100)",[3]; compound 10000 nM,4.9565
same,"SARS-CoV-2 spike driven entry, Mean (0 nM = 100)",[3]; compound 50000 nM,3.2315
same,"SARS-CoV-2 spike driven entry, Mean (0 nM = 100)",[4],47.6902 and 69.3145 and 95.2747
same,IC50,"[4]; Caco-2 cells, luciferase 2 days post transduction, read-out: IC50 pseudotyped lentivirus Omicron BA.1",0.0776 µM
same,"SARS-CoV-2 spike driven entry, Mean (0 nM = 100)","[4]; Fig. 5e, compound 400 nM, […]",26.7078
same,"SARS-CoV-2 spike driven entry, Mean (0 nM = 100)","[4]; Fig. 5e, compound 2000 nM, […]",11.5722
same,"SARS-CoV-2 spike driven entry, Mean (0 nM = 100)","[4]; Fig. 5e, compound 10000 nM, […]",6.102
same,"SARS-CoV-2 spike driven entry, Mean (0 nM = 100)","[4]; Fig. 5e, compound 50000 nM, […]",4.574
same,IC50,[5]; read-out: IC50 SARS-CoV-2 Wuhan-Hu-1,3.62 µM
same,IC50,[5]; read-out: IC50 SARS-CoV-2 Wuhan-Hu-1 (text),3.6 µM
same,IC50,[6]; read-out: IC50 SARS-CoV-2 Beta,9.31 µM
same,IC50,[6]; read-out: IC50 SARS-CoV-2 Beta (text),9.3 µM
same,residual inhibitory activity against TMPRSS2 after incubation in body fluids,"TMPRSS2; human serum / plasma, up to 10 days",inactive
same,reduction of activity against TMPRSS2 upon addition to serum,TMPRSS2; immediately after addition to human serum,around 60 fold
same,"TMPRSS2 activity, Mean (0 nM = 100)","TMPRSS2; inhibitor 0.0167 nM, 0 min in serum",97.0909
same,"TMPRSS2 activity, Mean (0 nM = 100)","TMPRSS2; inhibitor 0.0167 nM, 30 min in serum",98.7509
same,"TMPRSS2 activity, Mean (0 nM = 100)","TMPRSS2; inhibitor 0.0167 nM, 60 min in serum",96.1122
same,"TMPRSS2 activity, Mean (0 nM = 100)","TMPRSS2; inhibitor 0.0167 nM, 120 min in serum",96.1122
same,"TMPRSS2 activity, Mean (0 nM = 100)","TMPRSS2; inhibitor 0.0167 nM, 24 h in serum",109.9729
same,"TMPRSS2 activity, Mean (0 nM = 100)","TMPRSS2; inhibitor 0.0167 nM, 10 d in serum",104.3134
same,"TMPRSS2 activity, Mean (0 nM = 100)","TMPRSS2; inhibitor 0.0167 nM, positive ctrl",91.4692
same,"TMPRSS2 activity, Mean (0 nM = 100)","TMPRSS2; inhibitor 0.167 nM, 0 min in serum",95.7227
same,"TMPRSS2 activity, Mean (0 nM = 100)","TMPRSS2; inhibitor 0.167 nM, 30 min in serum",96.8742
same,"TMPRSS2 activity, Mean (0 nM = 100)","TMPRSS2; inhibitor 0.167 nM, 60 min in serum",95.2722
same,"TMPRSS2 activity, Mean (0 nM = 100)","TMPRSS2; inhibitor 0.167 nM, 120 min in serum",95.2722
same,"TMPRSS2 activity, Mean (0 nM = 100)","TMPRSS2; inhibitor 0.167 nM, 24 h in serum",109.0078
same,"TMPRSS2 activity, Mean (0 nM = 100)","TMPRSS2; inhibitor 0.167 nM, 10 d in serum",107.9350
same,"TMPRSS2 activity, Mean (0 nM = 100)","TMPRSS2; inhibitor 0.167 nM, positive ctrl",67.2760
same,"TMPRSS2 activity, Mean (0 nM = 100)","TMPRSS2; inhibitor 1.665 nM, 0 min in serum",91.6733
same,"TMPRSS2 activity, Mean (0 nM = 100)","TMPRSS2; inhibitor 1.665 nM, 30 min in serum",104.2530
same,"TMPRSS2 activity, Mean (0 nM = 100)","TMPRSS2; inhibitor 1.665 nM, 60 min in serum",90.9967
same,"TMPRSS2 activity, Mean (0 nM = 100)","TMPRSS2; inhibitor 1.665 nM, 120 min in serum",90.9967
same,"TMPRSS2 activity, Mean (0 nM = 100)","TMPRSS2; inhibitor 1.665 nM, 24 h in serum",110.5140
same,"TMPRSS2 activity, Mean (0 nM = 100)","TMPRSS2; inhibitor 1.665 nM, 10 d in serum",105.0630
same,"TMPRSS2 activity, Mean (0 nM = 100)","TMPRSS2; inhibitor 1.665 nM, positive ctrl",16.5425
same,"TMPRSS2 activity, Mean (0 nM = 100)","TMPRSS2; inhibitor 16.65 nM, 0 min in serum",58.3113
same,"TMPRSS2 activity, Mean (0 nM = 100)","TMPRSS2; inhibitor 16.65 nM, 30 min in serum",66.2869
same,"TMPRSS2 activity, Mean (0 nM = 100)","TMPRSS2; inhibitor 16.65 nM, 60 min in serum",73.7709
same,"TMPRSS2 activity, Mean (0 nM = 100)","TMPRSS2; inhibitor 16.65 nM, 120 min in serum",73.7709
